The nature of series [1]: Short-term physical stability of salts at 40° C./75% RH for 2 weeks (XRPD). In kind it is physicochemical. Particulars: determined by XRPD. The protocol: (§1) XRPD measurements were performed with the X-ray powder diffractometer Bruker D8 Advance at room temperature, using a copper filled X-ray tube (40 kV×40 mA) as the X-ray source, CuKα (λ=1.5418 Å), a 0.6 mm divergence slit, 2.5° Soller slits on both the primary and secondary beams and the 1-dimensional LynxEye detector (with aperture angle of 2.91593°). Data collection was done in the range of 3.8-33° 2θ with 0.02° increments, at a scan speed of 0.3°/s.
Short-term physical stability of various salts was studied by exposure at 40° C./75% RH for 2 weeks followed by measurement by XRPD.

The nature of series [2]: Slurry stability of crystalline forms of p-toluenesulfonic acid salt in different water activity conditions (XRPD). In kind it is physicochemical. Particulars: for Resulting form 5° C. / Resulting form 25° C. / Resulting form 40° C.: slurry of Form 3 stirred 2-3 weeks. How it is done:
as §1
Stability of the crystalline forms of p-toluenesulfonic acid salt in different water activity conditions was studied in slurry experiments where crystalline form 3 was stirred for 2-3 weeks at 5° C., 25° C. and 40° C. in mixtures of ethanol:water, acetonitrile (ACN):water, methanol: water and methanol alone. 0.5 ml of solvent was added to 25 mg of each sample. The resulting crystalline form was determined by XRPD.

Where [3] appears, read: ACN:water 92.1:7.9, water activity 0.81.
Setting [4] is: ACN:water 96.3:3.7, water activity 0.58.
[5] abbreviates: EtOH:water 30:70, water activity >0.9.
Where [6] appears, read: EtOH:water 83:17, water activity 0.64.
Where [7] appears, read: EtOH:water 92.8:7.2, water activity 0.40.
[8] abbreviates: EtOH:water 96.7:3.3, water activity 0.22.
[9] abbreviates: MeOH:water 36:64, water activity 0.83.
[10] abbreviates: MeOH:water 77:23, water activity 0.52.
Setting [11] is: MeOH:water 90:10, water activity 0.30.
The mark [12] stands for this setting: MeOH:water 95.3:4.7, water activity 0.16.

Counter-ions that a name gives are not always drawn.

Consider `CS(=O)(=O)N1CCC(COc2coc(CN3Cc4ccc(C(F)(F)F)cc4C3)cc2=O)CC1` [2-Naphthalenesulphonic acid salt (form 1)] [5-((1-(methyl-sulfonyl)piperidin-4-yl)methoxy)-2-((5-(trifluoromethyl)isoindolin-2-yl)methyl)-4H-pyran-4-one], for which the “Form after 2 weeks” value in series [1] is “No change”.
On the same count and under the same terms, next, `CS(=O)(=O)N1CCC(COc2coc(CN3Cc4ccc(C(F)(F)F)cc4C3)cc2=O)CC1` [Benzenesulfonic acid salt (form 1), 5-((1-(methyl-sulfonyl)piperidin-4-yl)methoxy)-2-((5-(trifluoromethyl)isoindolin-2-yl)methyl)-4H-pyran-4-one]: “No change”.
Consider `CS(=O)(=O)N1CCC(COc2coc(CN3Cc4ccc(C(F)(F)F)cc4C3)cc2=O)CC1` [Form 3, 5-((1-(methylsulfonyl)-piperidin-4-yl)methoxy)-2-((5-(trifluoromethyl)isoindolin-2-yl)methyl)-4H-pyran-4-one], for which, in series [2] (slurry in solvent:water mixtures and methanol, 5-40° C., 2-3 weeks), the “Stability of the crystalline form in the slurry conditions” value is reported as “unstable”. Moreover, the “Resulting form 5° C.” value is given as “Form 2” in series [2] (setting [3]); “Form 2” in series [2] (setting [4]); “Form 2” in series [2] (setting [5]); “Form 2” in series [2] (setting [6]); “Form 1” in series [2] (setting [7]); “Form 1” in series [2] (setting [8]). Also, the “Resulting form 5° C.” value is given as “Form 1” in series [2] (MeOH alone); “Form 2” in series [2] (setting [9]); “Form 2” in series [2] (setting [10]); “Form 1” in series [2] (setting [11]); “Form 1” in series [2] (setting [12]). Moreover, the “Resulting form 25° C.” value is given as “Form 2” in series [2] (setting [3]); “Form 2” in series [2] (setting [4]); “Form 2” in series [2] (setting [5]); “Form 2” in series [2] (setting [6]); “Form 1” in series [2] (setting [7]); “Form 1” in series [2] (setting [8]). Besides, the “Resulting form 25° C.” value in series [2] (MeOH alone) is reported as “Form 1”; in series [2] (setting [9]), “Form 2”; in series [2] (setting [10]) it was “Form 2”; in series [2] (setting [11]) it was “Form 1”; in series [2] (setting [12]), “Form 1”. In addition, the “Resulting form 40° C.” value in series [2] (setting [3]) is given as “Form 2”; in series [2] (setting [4]), “Form 2”; in series [2] (setting [5]), “Form 2”; in series [2] (setting [6]) it was “Form 2”; in series [2] (setting [7]), “Form 1”; in series [2] (setting [8]) it was “Form 1”. Besides, the “Resulting form 40° C.” value in series [2] (MeOH alone) is given as “Form 1”; in series [2] (setting [9]) it was “Form 2”; in series [2] (setting [10]), “Form 1”; in series [2] (setting [11]) it was “Form 1”; in series [2] (setting [12]), “Form 1”.
With `CS(=O)(=O)N1CCC(COc2coc(CN3Cc4ccc(C(F)(F)F)cc4C3)cc2=O)CC1` [Hydrobromic acid salt (form 1), 5-((1-(methyl-sulfonyl)piperidin-4-yl)methoxy)-2-((5-(trifluoromethyl)isoindolin-2-yl)methyl)-4H-pyran-4-one], the “Form after 2 weeks” value in series [1] was “No change”.
On to `CS(=O)(=O)N1CCC(COc2coc(CN3Cc4ccc(C(F)(F)F)cc4C3)cc2=O)CC1` [Hydrochloric acid salt (form 1), 5-((1-(methyl-sulfonyl)piperidin-4-yl)methoxy)-2-((5-(trifluoromethyl)isoindolin-2-yl)methyl)-4H-pyran-4-one], for which the “Form after 2 weeks” value in series [1] was “No change”.
As to `CS(=O)(=O)N1CCC(COc2coc(CN3Cc4ccc(C(F)(F)F)cc4C3)cc2=O)CC1` [Maleic acid salt (form 1), 5-((1-(methyl-sulfonyl)piperidin-4-yl)methoxy)-2-((5-(trifluoromethyl)isoindolin-2-yl)methyl)-4H-pyran-4-one], the “Form after 2 weeks” value in series [1] was “Form 1 + extra peaks”.
On to `CS(=O)(=O)N1CCC(COc2coc(CN3Cc4ccc(C(F)(F)F)cc4C3)cc2=O)CC1` [Methanesulfonic acid salt (form 1), 5-((1-(methyl-sulfonyl)piperidin-4-yl)methoxy)-2-((5-(trifluoromethyl)isoindolin-2-yl)methyl)-4H-pyran-4-one], for which the “Form after 2 weeks” value in series [1] is reported as “No change”.
Regarding `CS(=O)(=O)N1CCC(COc2coc(CN3Cc4ccc(C(F)(F)F)cc4C3)cc2=O)CC1` [Oxalic acid salt (form 1), 5-((1-(methyl-sulfonyl)piperidin-4-yl)methoxy)-2-((5-(trifluoromethyl)isoindolin-2-yl)methyl)-4H-pyran-4-one], in series [1], the “Form after 2 weeks” value was “Form 1 + extra peaks”.
Same read-out and setting: next, `CS(=O)(=O)N1CCC(COc2coc(CN3Cc4ccc(C(F)(F)F)cc4C3)cc2=O)CC1` [Oxalic acid salt (form 2), 5-((1-(methyl-sulfonyl)piperidin-4-yl)methoxy)-2-((5-(trifluoromethyl)isoindolin-2-yl)methyl)-4H-pyran-4-one]: “No change”.
In the case of `CS(=O)(=O)N1CCC(COc2coc(CN3Cc4ccc(C(F)(F)F)cc4C3)cc2=O)CC1` [Oxalic acid salt (form 3), 5-((1-(methyl-sulfonyl)piperidin-4-yl)methoxy)-2-((5-(trifluoromethyl)isoindolin-2-yl)methyl)-4H-pyran-4-one], the “Form after 2 weeks” value in series [1] is “Form 3 + extra peaks”.
Take `CS(=O)(=O)N1CCC(COc2coc(CN3Cc4ccc(C(F)(F)F)cc4C3)cc2=O)CC1` [Oxalic acid salt (form 4), 5-((1-(methyl-sulfonyl)piperidin-4-yl)methoxy)-2-((5-(trifluoromethyl)isoindolin-2-yl)methyl)-4H-pyran-4-one]: in series [1], the “Form after 2 weeks” value is “No change”.
Regarding `CS(=O)(=O)N1CCC(COc2coc(CN3Cc4ccc(C(F)(F)F)cc4C3)cc2=O)CC1` [p-Toluenesulfonic acid salt (form 1), 5-((1-(methylsulfonyl)-piperidin-4-yl)methoxy)-2-((5-(trifluoromethyl)isoindolin-2-yl)methyl)-4H-pyran-4-one], the “Water activity in which the crystalline form is favoured” value in series [2] (slurry experiments, 5-40° C., 2-3 weeks, values stated as 'about', listed as crystalline form 1 of p-toluenesulfonic acid salt) is given as “up to 0.4”. In addition, in series [1], the “Form after 2 weeks” value is “No change”.

For the origin of these results see US20250257054A1, “SALT FORMS OF A 4H-PYRAN-4-ONE STRUCTURED CYP11 A1 INHIBITOR” (ORION CORPORATION, priority 2021, published 2025).
